Assay results as given in patent US8945540B2, “Compositions for enhancing the antibacterial activity of myeloperoxidase and methods of use thereof” (Exoxemis, Inc., priority 2008, dated 2015).
Like-named read-outs stand apart in the source and are kept apart here.

How the values were obtained:
Staphylococcus aureus [1] = test: Microbicidal activity of the myeloperoxidase system (p-MPO, glucose oxidase, glucose) with amino acids in the presence of blood, CFU plate counts; synergy determination from these CFU; assay type: cell-based; settings: for Average Viability CFU/ml 50 min / Log Reduction 50 min: single amino acid 2.5 mM, MPO 4.7 U/ml, GO 4.2 U/ml
Method: Bacterial suspensions, specifically Staphylococcus aureus in this example, were prepared by the shake flask method to achieve late log to early stationary phase growth. Bacteria were grown 24 hours in trypticase soy broth (TSB) at 35° C. The cultures were centrifuged at 4,000 rpm for 10 minutes and the supernatants removed. The pellet was collected and washed twice with sterile 0.9% normal saline (NS). The washed microorganisms were suspended and diluted with normal saline to a 3 McFarland standard, i.e., approximately 10^9 bacteria colony forming units (CFU) per mL. Actual colony counts are confirmed by serial dilutions (10^−1 to 10^−5 or 10^−6) plated on TSA and incubated overnight at 35° C. To obtain an approximate final working target inoculum of 10^7 CFU/mL, 15 microliters of organisms per mL of final reaction mixture are used.
Glucose oxidase (GO) from Aspergillus Niger was purchased from Biozyme, Inc., UK, Cat #GO3A, 270 U/mg). Porcine Myeloperoxidase (p-MPO) (Exoxemis, Inc., Little Rock, Ark. U.S.A., 375 U/mg). Sterile stock solutions of D-glucose and sodium chloride were prepared and used at a final concentration of 150 mM each. L-Lysine hydrochloride (Spectrum Chemical Cat #L1142) was prepared as a 100 mM stock solution. Catalase (Sigma, Cat #C-40) was prepared as a 1% stock solution in sterile 0.9% normal saline. Blood was collected by venipuncture and used as whole blood within the same day.
Staphylococcus aureus were used to give a final target concentration of 2-3×10^7 CFU (7.4 log 10) per mL and venous whole blood was used to give a final concentration of 3%. Glucose was added to the reaction mixtures to a final concentration of 150 mM, which initiated the microbicidal reaction. The final volume of the reaction mixtures was 1 mL. The reactions were allowed to run from 30 minutes to 2 hours, as needed, at room temperature or at 37° C. in a dry bath. At the specified time points the reaction mixtures were treated with 100 microliters of a catalase solution, containing a minimum of 100 units/μL, to consume remaining peroxide and terminate the oxidative killing. Serial dilution plate counts were performed from the contents of each vial in sterile saline and inoculated onto trypticase soy agar (TSA) for quantitative culture. Plates were then incubated at 37° C. and counts taken at 24 hours. […] The results are shown in Table 1, as the average of 2 replicates.
The amino acids alone, in the absence of MPO were tested to rule out their microbicidal activity. The results are shown in Table 2 to Table 6, as the average of 2 replicates.
The amino acid analogues alone, in the absence of MPO, were tested to rule out their microbicidal activity. […]
The effect of two-way combinations of individual amino acids with L-isoleucine, as potential enhancing agents, for MPO microbicidal action in the presence of blood, was therefore examined by following the procedure of Example 5.
The Actual CFU observed for the pair is then divided by the Predicted CFU and multiplied by 100 to calculate the % of Predicted value. This value is then to be compared to the threshold value, discussed in the next section, to determine whether the pair are synergistic, antagonistic, or additive.
Calculation of appropriate threshold values for determination of synergism and antagonism was based upon the variability of replicated CFU survivor measures.

Staphylococcus aureus [2] = test: Control: microbicidal activity of the amino acid or analogue alone (no glucose, MPO, glucose oxidase) in the presence of blood; assay type: cell-based; settings: for log reduction at 5000 µM: Staphylococcus aureus, 1 h, read-out: Log Reduction 60 min
From the text: As a control to determine the microbicidal activity of the amino acids alone, the foregoing procedure was followed without replication, except in the absence of glucose, MPO, and glucose oxidase.

[3] = Table 7, amino acid analogue 5 mM, MPO 38 U/ml, GO 33.3 U/ml, blood
[4] = Table 11, in the presence of blood, 50 min
[5] = Table 14, in the presence of blood, 50 min
[6] = MPO 100 μg/mL, AA 20 mM, 30 min
[7] = MPO 100 μg/mL, AA 20 mM, 60 min
[8] = Table 3, amino acid 5 mM (none: 0 mM), MPO 38 U/ml, GO 33.3 U/ml, blood
[9] = Table 13, in the presence of blood, 50 min
[10] = amino acid alone 5 mM, MPO 0, GO 0, no glucose, blood, without replication
[11] = Table 5, amino acid 5 mM (none: 0 mM), MPO 38 U/ml, GO 33.3 U/ml, blood
[12] = Table 10, in the presence of blood, 50 min
[13] = Table 4, amino acid 5 mM (none: 0 mM), MPO 38 U/ml, GO 33.3 U/ml, blood

SMILES	log reduction at 5000 µM (Staphylococcus aureus [2])	Average Viability CFU/ml 50 min (Staphylococcus aureus [1]; [4]) [CFU/ml]	Log Reduction 50 min (Staphylococcus aureus [1]; [4])	Average Viability CFU/ml 50 min (Staphylococcus aureus [1]; [5]) [CFU/ml]	Log Reduction 50 min (Staphylococcus aureus [1]; [5])	Log 10 (CFU + 1) Survivors (Staphylococcus aureus [1]; MPO 25 μg/mL, AA 5 mM, 30 min)	Log 10 (CFU + 1) Survivors (Staphylococcus aureus [1]; MPO 25 μg/mL, AA 5 mM, 60 min)	Log 10 (CFU + 1) Survivors (Staphylococcus aureus [1]; MPO 25 μg/mL, AA […], 30 min)	Log 10 (CFU + 1) Survivors (Staphylococcus aureus [1]; MPO 25 μg/mL, AA […], 60 min)	Log 10 (CFU + 1) Survivors (Staphylococcus aureus [1]; MPO 100 μg/mL, AA 5 mM, 30 min)	Log 10 (CFU + 1) Survivors (Staphylococcus aureus [1]; MPO 100 μg/mL, AA 5 mM, 60 min)	Log 10 (CFU + 1) Survivors (Staphylococcus aureus [1]; [6])	Log 10 (CFU + 1) Survivors (Staphylococcus aureus [1]; [7])	log reduction at 5000 µM (Staphylococcus aureus [2]; [10])	Average Viability CFU/ml 60 min (Staphylococcus aureus [2]; [10]) [CFU/ml]	Average Viability CFU/ml 60 min (Staphylococcus aureus [1]; [11]) [CFU/ml]	Log Reduction 60 min (Staphylococcus aureus [1]; [11])	further results
CCOC(=O)CCN.Cl [Beta-Alanine ethyl ester hydrochloride]	0																	Average Viability CFU/ml 60 min (Staphylococcus aureus [1]; [3]): 1195000 CFU/ml; Log Reduction 60 min (Staphylococcus aureus [1]; [3]): 1.3; Average Viability CFU/ml 60 min (Staphylococcus aureus [2]; amino acid analogue alone 5 mM, MPO 0, GO 0, no glucose, blood): 23100000 CFU/ml
COC(=O)[C@@H](C)N [D-Ala methyl ester]		9500000	0.5	8850000	0.5													
COC(=O)[C@@H](C)N [D-Alanine methyl ester]						0.0	0.0	0.0	0.0	0.0	0.0	0.0	0.0					Average Viability CFU/ml 50 min (Staphylococcus aureus [1]; blood): 5450000 CFU/ml; Log Reduction 50 min (Staphylococcus aureus [1]; blood): 0.6
C[C@@H](N)C(=O)O [D-Alanine]						7.3	3.7	7.3	6.7	6.8	0.6	7.3	0.0	0	19600000			Average Viability CFU/ml 60 min (Staphylococcus aureus [1]; [8]): 0 CFU/ml; Log 10 (CFU + 1) Survivors 60 min (Staphylococcus aureus [1]; [8]): 0.0; Log Reduction 60 min (Staphylococcus aureus [1]; [8]): 7.3; Average Viability CFU/ml 50 min (Staphylococcus aureus [1]; [9]): 1900000 CFU/ml; Log Reduction 50 min (Staphylococcus aureus [1]; [9]): 1.1
N=C(N)NCCC[C@@H](N)C(=O)O [D-Arginine]	0.1	14650000	0.3	15000000	0.3	6.9	6.7	7.0	5.9	6.9	0.0	7.0	6.8		21500000	0	7.4	Average Viability CFU/ml 50 min (Staphylococcus aureus [1]; [12]): 14200000 CFU/ml; Log Reduction 50 min (Staphylococcus aureus [1]; [12]): 0.2; enhancement of MPO microbicidal activity (in words) (Staphylococcus aureus [1]; amino acid 5 mM, MPO 38 U/ml, GO 33.3 U/ml, blood): highly active
N[C@H](CC(=O)O)C(=O)O [D-Aspartic acid]														0.1	20900000	570000	1.6	
N[C@H](CCC(=O)O)C(=O)O [D-Glutamic acid]	0														26200000			Average Viability CFU/ml 60 min (Staphylococcus aureus [1]; [13]): 955000 CFU/ml; Log Reduction 60 min (Staphylococcus aureus [1]; [13]): 1.4
NC(=O)CC[C@@H](N)C(=O)O [D-Glutamine]		15500000	0.2	15050000	0.3	7.3	7.0	7.2	7.0	5.0	0.0	6.8	4.0	0.1	20500000	18	6.1	Average Viability CFU/ml 50 min (Staphylococcus aureus [1]; [12]): 14750000 CFU/ml; Log Reduction 50 min (Staphylococcus aureus [1]; [12]): 0.2
N[C@H](Cc1c[nH]cn1)C(=O)O [D-Histidine]		8000000	0.5			7.0	6.0	6.9	5.8	5.1	4.1	6.8	3.9	0	22300000	10900	3.4	
